Source: ChEMBL document CHEMBL2203051, “Synthesis of new opioid derivatives with a propellane skeleton and their pharmacologies: part 3, novel propellane derivatives with pentacyclic skeletons” (Bioorg Med Chem Lett, 2012)

Columns and labels:
[1] = target: Delta-type opioid receptor (Mus musculus, UniProt P32300); experiment: Displacement of [3H][…] from delta opioid receptor in mouse whole brain without cerebellum
Mu-type opioid receptor = Mu-type opioid receptor (Cavia porcellus, UniProt P97266); experiment: Displacement of [3H]DAMGO from mu opioid receptor in […]
Mu-type opioid receptor, sequence (P97266 whole entry): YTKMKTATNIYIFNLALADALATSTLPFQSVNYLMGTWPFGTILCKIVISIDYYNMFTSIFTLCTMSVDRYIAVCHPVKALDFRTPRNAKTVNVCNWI

[2] = target: Kappa-type opioid receptor (Mus musculus, UniProt P33534); experiment: Displacement of [3H]U-69,593 from kappa opioid receptor in mouse whole brain without cerebellum
Kappa-type opioid receptor, sequence (P33534 whole entry): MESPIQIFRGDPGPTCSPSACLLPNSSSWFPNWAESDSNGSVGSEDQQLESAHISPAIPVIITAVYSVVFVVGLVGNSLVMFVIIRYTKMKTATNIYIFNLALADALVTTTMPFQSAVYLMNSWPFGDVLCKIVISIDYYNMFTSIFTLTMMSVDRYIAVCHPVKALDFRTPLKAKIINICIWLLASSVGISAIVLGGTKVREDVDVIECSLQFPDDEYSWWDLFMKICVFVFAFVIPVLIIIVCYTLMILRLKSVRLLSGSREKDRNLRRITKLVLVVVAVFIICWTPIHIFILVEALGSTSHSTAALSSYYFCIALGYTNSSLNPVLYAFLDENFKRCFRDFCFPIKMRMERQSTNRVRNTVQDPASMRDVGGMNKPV

Mus musculus = organism: Mus musculus; experiment: Selectivity ratio of Ki for delta opioid receptor mouse whole brain without cerebellum to Ki for kappa opioid receptor in mouse whole brain without cerebellum
[3] = Selectivity ratio of Ki for mu opioid receptor in […] to Ki for kappa opioid receptor in mouse whole brain without cerebellum

Delta-type opioid receptor, sequence (P32300 whole entry): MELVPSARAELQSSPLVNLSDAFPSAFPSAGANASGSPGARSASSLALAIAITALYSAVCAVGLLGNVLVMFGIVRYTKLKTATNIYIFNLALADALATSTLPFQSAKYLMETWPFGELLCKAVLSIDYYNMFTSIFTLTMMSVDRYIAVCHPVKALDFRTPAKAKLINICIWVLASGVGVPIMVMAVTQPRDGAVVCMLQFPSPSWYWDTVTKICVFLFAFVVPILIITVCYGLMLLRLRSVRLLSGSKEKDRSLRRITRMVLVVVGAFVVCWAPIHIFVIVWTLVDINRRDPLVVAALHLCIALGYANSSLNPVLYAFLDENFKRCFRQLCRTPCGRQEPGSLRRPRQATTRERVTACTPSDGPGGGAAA

## O=C1CC23CCN(CC4CC4)C4C[C@@H](O)C1CC42Cc1ccc(O)cc13 (stereo not given in full)
[1]
  Ki: 0.0679 µM
Mu-type opioid receptor
  Ki: 0.0131 µM
[2]
  Ki: 0.00763 µM
Mus musculus
  Ratio Ki: 8.9
[3]
  Ratio Ki: 1.72

## O=C1CC23CCN(CC4CC4)C4CCC1CC42Cc1ccc(O)cc13 (stereo not given)
[1]
  Ki: 0.0436 µM
Mu-type opioid receptor
  Ki: 0.00321 µM
[2]
  Ki: 0.00084 µM
Mus musculus
  Ratio Ki: 52
[3]
  Ratio Ki: 3.82

## O=C1CC23CCN(CC4CC4)C4C=CC1CC42Cc1ccc(O)cc13 (stereo not given)
[1]
  Ki: 0.0522 µM
Mu-type opioid receptor
  Ki: 0.0176 µM
[2]
  Ki: 0.00192 µM
Mus musculus
  Ratio Ki: 27.2
[3]
  Ratio Ki: 9.17

## O=C1CC23CCN(CC4CC4)C4C[C@H](O)C1CC42Cc1ccc(O)cc13 (stereo not given in full)
[1]
  Ki: 0.146 µM
Mu-type opioid receptor
  Ki: 0.0707 µM
[2]
  Ki: 0.0167 µM
Mus musculus
  Ratio Ki: 8.72
[3]
  Ratio Ki: 4.22

## O=C1CC2N(CC3CC3)CCC34CC(=O)C1CC23Cc1ccc(O)cc14 (stereo not given)
[1]
  Ki: 0.41 µM
Mu-type opioid receptor
  Ki: 0.187 µM
[2]
  Ki: 0.0565 µM
Mus musculus
  Ratio Ki: 7.26
[3]
  Ratio Ki: 3.31
